Assay results published in ChEMBL document CHEMBL4627246, “Pyroglutamide-Based P2X7 Receptor Antagonists Targeting Inflammatory Bowel Disease” (J Med Chem, 2020).

Columns and labels:
Type in all cases: cell-based
[1] = test system: CCRF-CEM; assay: Cytotoxicity against human CCRF-CEM cells assessed as effect on cell growth at 10 uM incubated for 48 hrs by sulforhodamine B assay
[2] = test system: A549; assay: Cytotoxicity against human A549/ATCC cells assessed as effect on cell growth at 10 uM incubated for 48 hrs by sulforhodamine B assay; details: a549, 48 h
[3] = test system: K562; assay: Cytotoxicity against human K562 cells assessed as effect on cell growth at 10 uM incubated for 48 hrs by sulforhodamine B assay; details: k562, 48 h
[4] = test system: HOP-62; assay: Cytotoxicity against human HOP62 cells assessed as effect on cell growth at 10 uM incubated for 48 hrs by sulforhodamine B assay; details: hop-62, 48 h
[5] = test system: COLO 205; assay: Cytotoxicity against human COLO205 cells assessed as effect on cell growth at 10 uM incubated for 48 hrs by sulforhodamine B assay; details: colo 205, 48 h
[6] = test system: HCC 2998; assay: Cytotoxicity against human HCC2998 cells assessed as effect on cell growth at 10 uM incubated for 48 hrs by sulforhodamine B assay; details: hcc 2998, 48 h
[7] = test system: SF-295; assay: Cytotoxicity against human SF295 cells assessed as effect on cell growth at 10 uM incubated for 48 hrs by sulforhodamine B assay; details: sf-295, 48 h
[8] = test system: SF-539; assay: Cytotoxicity against human SF539 cells assessed as effect on cell growth at 10 uM incubated for 48 hrs by sulforhodamine B assay; details: sf-539, 48 h
[9] = test system: Malme-3M; assay: Cytotoxicity against human MALME-3M cells assessed as effect on cell growth at 10 uM incubated for 48 hrs by sulforhodamine B assay
[10] = test system: M14; assay: Cytotoxicity against human M14 cells assessed as effect on cell growth at 10 uM incubated for 48 hrs by sulforhodamine B assay; details: m14, 48 h
[11] = test system: SK-MEL-2; assay: Cytotoxicity against human SK-MEL-2 cells assessed as effect on cell growth at 10 uM incubated for 48 hrs by sulforhodamine B assay; details: sk-mel-2, 48 h
[12] = test system: SK-MEL-28; assay: Cytotoxicity against human SK-MEL-28 cells assessed as effect on cell growth at 10 uM incubated for 48 hrs by sulforhodamine B assay; details: sk-mel-28, 48 h
[13] = test system: OVCAR-3; assay: Cytotoxicity against human OVCAR3 cells assessed as effect on cell growth at 10 uM incubated for 48 hrs by sulforhodamine B assay; details: ovcar-3, 48 h
[14] = test system: OVCAR-4; assay: Cytotoxicity against human OVCAR4 cells assessed as effect on cell growth at 10 uM incubated for 48 hrs by sulforhodamine B assay; details: ovcar-4, 48 h
[15] = test system: OVCAR-8; assay: Cytotoxicity against human OVCAR8 cells assessed as effect on cell growth at 10 uM incubated for 48 hrs by sulforhodamine B assay; details: ovcar-8, 48 h
[16] = test system: NCI/ADR-RES; assay: Cytotoxicity against human NCI/ADR-RES cells assessed as effect on cell growth at 10 uM incubated for 48 hrs by sulforhodamine B assay
[17] = test system: A498; assay: Cytotoxicity against human A498 cells assessed as effect on cell growth at 10 uM incubated for 48 hrs by sulforhodamine B assay; details: a498, 48 h
[18] = test system: RXF 393; assay: Cytotoxicity against human RXF393 cells assessed as effect on cell growth at 10 uM incubated for 48 hrs by sulforhodamine B assay; details: rxf 393, 48 h
[19] = test system: MDA-MB-231; assay: Cytotoxicity against human MDA-MB-231 cells assessed as effect on cell growth at 10 uM incubated for 48 hrs by sulforhodamine B assay; details: mda-mb-231, 48 h
[20] = test system: T47D; assay: Cytotoxicity against human T47D cells assessed as effect on cell growth at 10 uM incubated for 48 hrs by sulforhodamine B assay

Measured: Activity

O=C(NCc1ccc(Cl)cc1Cl)[C@@H]1COC(=O)N1c1cccs1
Non-Toxic: all assays above

CN(C)/C=C1\C[C@@H](C(=O)NCc2ccc(Cl)cc2Cl)N(c2cccs2)C1=O
Non-Toxic: all assays above

O=C(NCc1ccc(Cl)cc1Cl)[C@@H]1CCC(=O)N1C(c1ccccc1)c1ccccc1
Non-Toxic: all assays above

COc1ccc(N2C(=O)[C@@H]3C/C(=C\N(C)C)C(=O)N3C2N(C)C)cc1 (stereo not given in full)
Non-Toxic: all assays above

COc1ccc(NC(=O)[C@@H]2C/C(=C\N(C)C)C(=O)N2)cc1
Non-Toxic: all assays above

O=C(NCc1ccccc1Cl)[C@@H]1CCC(=O)N1Cc1ccccc1Cl
Non-Toxic: all assays above

O=C1CCCC(C(=O)NCc2ccc(Cl)cc2Cl)N1 (stereo not given)
Non-Toxic: all assays above

O=C(NCc1ccccc1)[C@@H]1CCC(=O)N1Cc1ccc(Cl)cc1Cl
Non-Toxic: all assays above

O=C1N[C@H](C(=O)NCc2ccc(Cl)cc2Cl)CO1
Non-Toxic: all assays above

O=C1N[C@H](C(=O)NCc2ccc(Cl)cc2Cl)C/C1=C\N1CCOCC1
Non-Toxic: all assays above

COc1ccccc1CN1C(=O)[C@@H]2C/C(=C\N(C)C)C(=O)N2C1N(C)C (stereo not given in full)
Non-Toxic: all assays above

N#Cc1ccc(N2C(=O)CC[C@H]2C(=O)NCc2ccc(Cl)cc2Cl)cc1
Non-Toxic: all assays above

COc1cc(CN/C=C2\C[C@@H](C(=O)NCc3ccc(Cl)cc3Cl)NC2=O)cc(OC)c1OC
Non-Toxic: all assays above

O=C(NCC1CCCCC1)[C@@H]1CCC(=O)N1c1ccccc1
Non-Toxic: all assays above
